Data taken from the NIST ThermoML archive (doi:10.1016/j.jct.2013.04.015).

Test: xn = mol fraction of the nth substance listed
Conditions: for surface tension liquid-gas: Wilhelmy plate method; for mass density: 101 kPa, Liquid, Vibrating tube method

CCCCn1cc[n+](C)c1.C[C@H](O)C(=O)[O-] [1-butyl-3-methylimidazolium L-lactate] + CCCCO
Conditions | mass density [kg/m3] | surface tension liquid-gas [mN/m]
298.15 K, x1 = 0.01 | – | 24.18
298.15 K, x1 = 0.0297 | – | 24.53
298.15 K, x1 = 0.0482 | – | 24.7
298.15 K, x1 = 0.0601 | – | 24.83
298.15 K, x1 = 0.0888 | – | 25.1
298.15 K, x1 = 0.0999 | 875.7 | –
298.15 K, x1 = 0.1001 | – | 25.17
298.15 K, x1 = 0.1996 | 927.3 | 26.2
298.15 K, x1 = 0.3016 | – | 27.25
298.15 K, x1 = 0.303 | 968.1 | –
298.15 K, x1 = 0.3998 | 997.8 | –
298.15 K, x1 = 0.4004 | – | 28.42
298.15 K, x1 = 0.4997 | – | 29.67
298.15 K, x1 = 0.5 | 1024.2 | –
298.15 K, x1 = 0.5889 | – | 31.11
298.15 K, x1 = 0.6002 | 1044.6 | –
298.15 K, x1 = 0.6979 | – | 32.64
298.15 K, x1 = 0.7001 | 1060.8 | –
298.15 K, x1 = 0.8 | 1076.4 | –
298.15 K, x1 = 0.8012 | – | 34.73
298.15 K, x1 = 0.8747 | – | 36.6
298.15 K, x1 = 0.8999 | 1091.8 | –
298.15 K, x1 = 1 | 1111.2 | 42.92
308.15 K, x1 = 0.0101 | – | 23.63
308.15 K, x1 = 0.0295 | – | 23.87
308.15 K, x1 = 0.0495 | – | 24.18
308.15 K, x1 = 0.0604 | – | 24.22
308.15 K, x1 = 0.0884 | – | 24.59
308.15 K, x1 = 0.0999 | 868.3 | 24.67
308.15 K, x1 = 0.1996 | 920.3 | –
308.15 K, x1 = 0.1999 | – | 25.68
308.15 K, x1 = 0.3008 | – | 26.81
308.15 K, x1 = 0.303 | 960.8 | –
308.15 K, x1 = 0.3994 | – | 28.18
308.15 K, x1 = 0.3998 | 990.5 | –
308.15 K, x1 = 0.4989 | – | 29.41
308.15 K, x1 = 0.5 | 1017.2 | –
308.15 K, x1 = 0.5877 | – | 30.83
308.15 K, x1 = 0.6002 | 1037.4 | –
308.15 K, x1 = 0.695 | – | 32.5
308.15 K, x1 = 0.7001 | 1053.9 | –
308.15 K, x1 = 0.7981 | – | 34.33
308.15 K, x1 = 0.8 | 1069 | –
308.15 K, x1 = 0.8807 | – | 36.48
308.15 K, x1 = 0.8999 | 1084.2 | –
308.15 K, x1 = 1 | 1104.2 | 42.37
318.15 K, x1 = 0.0101 | – | 23.08
318.15 K, x1 = 0.0296 | – | 23.25
318.15 K, x1 = 0.0485 | – | 23.59
318.15 K, x1 = 0.061 | – | 23.71
318.15 K, x1 = 0.0903 | – | 23.93
318.15 K, x1 = 0.0999 | 859.6 | –
318.15 K, x1 = 0.1004 | – | 24.17
318.15 K, x1 = 0.1996 | 913 | –
318.15 K, x1 = 0.2004 | – | 25.18
318.15 K, x1 = 0.3011 | – | 26.53
318.15 K, x1 = 0.303 | 953.9 | –
318.15 K, x1 = 0.3986 | – | 28
318.15 K, x1 = 0.3998 | 983.4 | –
318.15 K, x1 = 0.4989 | – | 29.33
318.15 K, x1 = 0.5 | 1010.1 | –
318.15 K, x1 = 0.59 | – | 30.68
318.15 K, x1 = 0.6002 | 1030.9 | –
318.15 K, x1 = 0.688 | – | 32.24
318.15 K, x1 = 0.7001 | 1047.5 | –
318.15 K, x1 = 0.7993 | – | 34.23
318.15 K, x1 = 0.8 | 1062 | –
318.15 K, x1 = 0.8735 | – | 36.03
318.15 K, x1 = 0.8999 | 1077.3 | –
318.15 K, x1 = 1 | 1097.7 | 42.01

CCCCn1cc[n+](C)c1.C[C@H](O)C(=O)[O-] [1-butyl-3-methylimidazolium L-lactate] + CCO
Conditions | mass density [kg/m3] | surface tension liquid-gas [mN/m]
298.15 K, x1 = 0.01 | – | 22.44
298.15 K, x1 = 0.0299 | – | 22.99
298.15 K, x1 = 0.0497 | – | 23.47
298.15 K, x1 = 0.0708 | – | 24
298.15 K, x1 = 0.0944 | – | 24.54
298.15 K, x1 = 0.0997 | 897.2 | –
298.15 K, x1 = 0.1987 | 959.5 | –
298.15 K, x1 = 0.2001 | – | 26.97
298.15 K, x1 = 0.3018 | – | 29.2
298.15 K, x1 = 0.3066 | 1002 | –
298.15 K, x1 = 0.4019 | – | 31.51
298.15 K, x1 = 0.4106 | 1028.2 | –
298.15 K, x1 = 0.4954 | 1042.5 | –
298.15 K, x1 = 0.499 | – | 33.45
298.15 K, x1 = 0.5989 | 1058.4 | –
298.15 K, x1 = 0.6216 | – | 35.27
298.15 K, x1 = 0.6985 | 1070.8 | –
298.15 K, x1 = 0.7009 | – | 36.3
298.15 K, x1 = 0.7524 | – | 37.06
298.15 K, x1 = 0.7869 | 1082.1 | –
298.15 K, x1 = 0.8381 | – | 38.77
298.15 K, x1 = 0.8978 | 1095.2 | –
298.15 K, x1 = 1 | 1111.2 | 42.92
308.15 K, x1 = 0.01 | – | 21.58
308.15 K, x1 = 0.0302 | – | 22.12
308.15 K, x1 = 0.0474 | – | 22.62
308.15 K, x1 = 0.0707 | – | 23.22
308.15 K, x1 = 0.0952 | – | 23.9
308.15 K, x1 = 0.0997 | 888.9 | –
308.15 K, x1 = 0.1987 | 951.9 | –
308.15 K, x1 = 0.2028 | – | 26.53
308.15 K, x1 = 0.3026 | – | 28.8
308.15 K, x1 = 0.3066 | 994.7 | –
308.15 K, x1 = 0.406 | – | 31.08
308.15 K, x1 = 0.4106 | 1021.1 | –
308.15 K, x1 = 0.4954 | 1034.3 | –
308.15 K, x1 = 0.4966 | – | 32.88
308.15 K, x1 = 0.5989 | 1050.4 | –
308.15 K, x1 = 0.6053 | – | 34.78
308.15 K, x1 = 0.6882 | – | 35.51
308.15 K, x1 = 0.6985 | 1062.4 | –
308.15 K, x1 = 0.7869 | 1073.8 | –
308.15 K, x1 = 0.7888 | – | 36.81
308.15 K, x1 = 0.8313 | – | 37.9
308.15 K, x1 = 0.8978 | 1086.9 | –
308.15 K, x1 = 1 | 1104.2 | 42.37
318.15 K, x1 = 0.01 | – | 20.88
318.15 K, x1 = 0.0304 | – | 21.56
318.15 K, x1 = 0.0448 | – | 21.9
318.15 K, x1 = 0.0702 | – | 22.56
318.15 K, x1 = 0.0958 | – | 23.39
318.15 K, x1 = 0.0997 | 881.9 | –
318.15 K, x1 = 0.1987 | 944 | –
318.15 K, x1 = 0.203 | – | 26.09
318.15 K, x1 = 0.3032 | – | 28.36
318.15 K, x1 = 0.3066 | 987.7 | –
318.15 K, x1 = 0.4034 | – | 30.45
318.15 K, x1 = 0.4106 | 1014.5 | –
318.15 K, x1 = 0.4954 | 1028.3 | –
318.15 K, x1 = 0.5017 | – | 32.46
318.15 K, x1 = 0.5989 | 1042.6 | –
318.15 K, x1 = 0.6042 | – | 34.23
318.15 K, x1 = 0.6657 | – | 34.84
318.15 K, x1 = 0.6985 | 1055.3 | –
318.15 K, x1 = 0.7561 | – | 35.48
318.15 K, x1 = 0.7869 | 1066.9 | –
318.15 K, x1 = 0.8319 | – | 36.61
318.15 K, x1 = 0.8978 | 1079.8 | –
318.15 K, x1 = 1 | 1097.7 | 42.01
